# Molecular target: T1, mouse NPY-Y5 receptors (mNPY-Y5) (Mus musculus, UniProt O70342)
# T1 construct: The full-length cDNA which contains the mouse NPY-Y5 (mNPY-Y5) receptor coding was amplified from mouse brain cDNA; expressed in transfected cells
# T1 sequence (O70342 1-466): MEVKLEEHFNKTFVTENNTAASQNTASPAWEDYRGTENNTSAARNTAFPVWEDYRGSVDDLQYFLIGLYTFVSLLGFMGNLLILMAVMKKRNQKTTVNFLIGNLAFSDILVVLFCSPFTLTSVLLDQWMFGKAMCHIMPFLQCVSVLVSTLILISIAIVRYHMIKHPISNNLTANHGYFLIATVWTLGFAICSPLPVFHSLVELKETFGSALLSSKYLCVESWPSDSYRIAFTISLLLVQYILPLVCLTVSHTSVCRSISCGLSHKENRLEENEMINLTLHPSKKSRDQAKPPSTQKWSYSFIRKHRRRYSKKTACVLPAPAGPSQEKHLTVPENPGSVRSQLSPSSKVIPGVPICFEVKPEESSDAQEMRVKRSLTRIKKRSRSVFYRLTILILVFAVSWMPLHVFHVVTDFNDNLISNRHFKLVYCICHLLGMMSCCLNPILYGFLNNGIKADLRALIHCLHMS
# Experiment: Radioligand competition binding (125I-PYY) on membranes of HEK293 cells expressing recombinant mouse NPY-Y5 receptor
# Details: displacement of 100 pM 125I-labeled PYY, 1 h at 22° C., read-out: NPY5 IC50
# Excerpt: The full-length cDNA which contains the mouse NPY-Y5 (mNPY-Y5) receptor coding was amplified from mouse brain cDNA using specific primers, which were custom-made on the basis of published sequences, and employing Pfu DNA polymerase (Stratagene). The amplification product was subcloned into a mammalian expression vector pcDNA3 using EcoRI and XhoI restriction sites. Positive clones were sequenced; one clone, which contained the published sequence, was selected for preparing stable cell clones.
# Human embryonic kidney 293 (HEK293) cells were transfected with 10 μg of mNPY5 DNA using Lipofectamine reagent (Gibco BRL) in accordance with the manufacturer's instructions. Two days after the transfection, the geneticin selection (1 mg/ml) was initiated and several stable clones were isolated. One of the clones was used for further pharmacological characterization.
# Human embryonic kidney cells (HEK293) which express recombinant mouse NPY-Y5 receptors (mNPY-Y5) were disrupted by being frozen/thawed three times in hypotonic Tris buffer (5 mM, pH 7.4, 1 mM MgCl2), after which they were homogenized and centrifuged at 72 000 G for 15 minutes. The precipitate was washed twice with Tris buffer (pH 7.4) containing 25 mM MgCl2, 250 mM sucrose, 0.1 mM phenylmethylsulfonyl fluoride and 0.1 mM 1,10-phenanthroline, then resuspended in the same buffer and stored in aliquots at −80° C. The protein was determined by the Lowry method using bovine serum albumin (BSA) as the standard.
# The competition binding analysis was carried out in 250 μl of 25 mM Hepes buffer (pH 7.4, 2.5 mM CaCl2, 1 mM MgCl2, 1% bovine serum albumin and 0.01% sodium azide) which 5 μg of protein, 100 pM ^125I-labeled peptide YY (PYY) and 10 μl of a DMSO solution containing increasing quantities of DMSO solution containing unlabeled test compound. After a one-hour incubation at 22° C., the bound ligand was separated from the unbound ligand by means of filtration through a glass fiber filter. Nonspecific binding was determined in the presence of 1 μM unlabeled PYY. Specific binding is defined as the difference between total binding and nonspecific binding. An IC50 value is defined as the concentration of the antagonist which displaces 50% of the ^125I-labeled […]. This concentration is determined by linear regression analysis following logit/log transformation of the binding values.
row,IC50,Compound
1,20 nM,CCn1c2ccccc2c2cc(NC(=O)C3CC(=O)N(c4cccc(OC)c4)C3)ccc21 (racemic) [rac. N-(9-Ethyl-9H-carbazol-3-yl)-1-(3-methoxyphenyl)-5-oxopyrrolidine-3-carboxamide]
2,32 nM,CCn1c2ccccc2c2cc(NC(=O)C3CC(=O)N(C4Cc5ccccc5C4)C3)ccc21 (racemic) [rac. N-(9-Ethyl-9H-carbazol-3-yl)-1-indan-2-yl-5-oxopyrrolidine-3-carboxamide]
3,45 nM,"Cc1ccc(C)c(N2CC(C(=O)Nc3ccc(C(C)C)cc3)CC2=O)c1 (racemic) [rac. N-(4-Isopropylphenyl)-1-(2,5-dimethylphenyl)-5-oxopyrrolidine-3-carboxamide]"
4,33 nM,"CCN(c1ccc(NC(=O)C2CC(=O)N(CC(O)c3ccccc3)C2)cc1)c1nc(C)cc(C)n1 (racemic) [rac. N-{4-[(4,6-Dimethylpyrimidin-2-yl)ethylamino]phenyl}-1-(2-hydroxy-2-phenylethyl)-5-oxo-pyrrolidine-3-carboxamide]"
5,30 nM,CCn1c2ccccc2c2cc(NC(=O)C3CC(=O)N(c4cccc(F)c4)C3)ccc21 (racemic) [rac. N-(9-Ethyl-9H-carbazol-3-yl)-1-(3-fluorophenyl)-5-oxopyrrolidine-3-carboxamide]
6,30 nM,CCn1c2ccccc2c2cc(NC(=O)C3CC(=O)N(c4ccc(C)cc4)C3)ccc21 (racemic) [rac. N-(9-Ethyl-9H-carbazol-3-yl)-5-oxo-1-p-tolylpyrrolidine-3-carboxamide]
7,10 nM,"CCN(c1ccc(NC(=O)C2CC(=O)N(c3cc(C)ccc3C)C2)cc1)C(C)C (racemic) [rac. N-[4-(Ethylisopropylamino)phenyl]-1-(2,5-dimethylphenyl)-5-oxopyrrolidine-3-carboxamide]"
8,34 nM,COc1ccc(C)c(N2CC(C(=O)Nc3ccc(N(CC4CC4)c4ccccc4)cc3)CC2=O)c1 (racemic) [rac. N-[4-(Cyclopropylmethylphenylamino)phenyl]-1-(5-methoxy-2-methylphenyl)-5-oxopyrrolidine-3-carboxamide]
9,10 nM,CCn1c2ccccc2c2cc(NC(=O)C3CC(=O)N(Cc4ccc(Cl)cc4)C3)ccc21 (racemic) [rac. N-(9-Ethyl-9H-carbazol-3-yl)-1-(4-chlorobenzyl)-5-oxopyrrolidine-3-carboxamide]
10,10 nM,CCn1c2ccccc2c2cc(NC(=O)C3CC(=O)N(Cc4ccco4)C3)ccc21 (racemic) [rac. N-(9-Ethyl-9H-carbazol-3-yl)-1-furan-2-ylmethyl-5-oxopyrrolidine-3-carboxamide]
11,10 nM,CCn1c2ccccc2c2cc(NC(=O)C3CC(=O)N(c4cc(OC)ccc4C)C3)ccc21 (racemic) [rac. N-(9-Ethyl-9H-carbazol-3-yl)-1-(5-methoxy-2-methylphenyl)-5-oxopyrrolidine-3-carboxamide]
12,41 nM,CC(C)c1ccccc1N1CC(C(=O)Nc2ccc(Nc3ccccc3)cc2)CC1=O (racemic) [rac. N-(4-Phenylaminophenyl)-1-(2-isopropylphenyl)-5-oxopyrrolidine-3-carboxamide]
13,20 nM,CC(C)c1ccccc1N1CC(C(=O)Nc2ccc(N(C)c3ccccc3)cc2)CC1=O (racemic) [rac. N-[4-(Methylphenylamino)phenyl]-1-(2-isopropylphenyl)-5-oxopyrrolidine-3-carboxamide]
14,44 nM,"CCN(c1ccc(NC(=O)C2CC(=O)N(c3cccc(OC)c3)C2)cc1)c1nc(C)cc(C)n1 (racemic) [rac. N-{4-[(4,6-Dimethylpyrimidin-2-yl)ethylamino]phenyl}-1-(3-methoxyphenyl)-5-oxopyrrolidine-3-carboxamide]"
15,26 nM,"Cc1ccc(C)c(N2CC(C(=O)Nc3ccc(N(C)c4ccccc4)cc3)CC2=O)c1 (racemic) [rac. N-[4-(Methylphenylamino)phenyl]-1-(2,5-dimethylphenyl)-5-oxopyrrolidine-3-carboxamide]"
16,30 nM,CCn1c2ccccc2c2cc(NC(=O)C3CC(=O)N(c4ccc(C(C)C)cc4)C3)ccc21 (racemic) [rac. N-(9-Ethyl-9H-carbazol-3-yl)-1-(4-isopropylphenyl)-5-oxopyrrolidine-3-carboxamide]
17,21 nM,CCn1c2ccccc2c2cc(NC(=O)C3CC(=O)N(c4ccccc4)C3)ccc21 (racemic) [rac. N-(9-Ethyl-9H-carbazol-3-yl)-5-oxo-1-phenylpyrrolidine-3-carboxamide]
18,26 nM,"COc1ccc(C)c(N2CC(C(=O)Nc3ccc(Nc4nc(C)cc(C)n4)cc3)CC2=O)c1 (racemic) [rac. N-[4-(4,6-Dimethylpyrimidin-2-ylamino)phenyl]-1-(5-methoxy-2-methylphenyl)-5-oxopyrrolidine-3-carboxamide]"
19,30 nM,"Cc1cc(C)nc(Nc2ccc(NC(=O)C3CC(=O)N(C4Cc5ccccc5C4)C3)cc2)n1 (racemic) [rac. N-[4-(4,6-Dimethylpyrimidin-2-ylamino)phenyl]-1-indan-2-yl-5-oxopyrrolidine-3-carboxamide]"
20,49 nM,CCN(c1ccccc1)c1ccc(NC(=O)C2CC(=O)N(C3Cc4ccccc4C3)C2)cc1 (racemic) [rac. N-[4-(Ethylphenylamino)phenyl]-1-indan-2-yl-5-oxopyrrolidine-3-carboxamide]
21,30 nM,"Cc1ccc(C)c(N2CC(C(=O)Nc3ccc(Nc4ccccc4)cc3)CC2=O)c1 (racemic) [rac. N-(4-Phenylaminophenyl)-1-(2,5-dimethylphenyl)-5-oxopyrrolidine-3-carboxamide]"
22,10 nM,CCn1c2ccccc2c2cc(NC(=O)C3CC(=O)N(c4ccccc4C(C)C)C3)ccc21 (racemic) [rac. N-(9-Ethyl-9H-carbazol-3-yl)-1-(2-isopropylphenyl)-5-oxopyrrolidine-3-carboxamide]
23,10 nM,CCn1c2ccccc2c2cc(NC(=O)C3CC(=O)N(Cc4cccs4)C3)ccc21 (racemic) [rac. N-(9-Ethyl-9H-carbazol-3-yl)-5-oxo-1-thiophen-2-ylmethylpyrrolidine-3-carboxamide]
24,46 nM,CCOC(=O)CN(c1ccccc1)c1ccc(NC(=O)C2CC(=O)N(c3cc(OC)ccc3C)C2)cc1 (racemic) [rac. Ethyl [(4-{[1-(5-methoxy-2-methylphenyl)-5-oxopyrrolidine-3-carbonyl]amino}phenyl)phenylamino]acetate]
25,15 nM,CCn1c2ccccc2c2cc(NC(=O)C3CC(=O)N(C4CCCCCC4)C3)ccc21 (racemic) [rac. N-(9-Ethyl-9H-carbazol-3-yl)-1-cycloheptyl-5-oxopyrrolidine-3-carboxamide]
26,46 nM,"CCN(c1ccc(NC(=O)C2CC(=O)N(c3ccccc3C(C)C)C2)cc1)c1nc(C)cc(C)n1 (racemic) [rac. N-{4-[(4,6-Dimethylpyrimidin-2-yl)ethylamino]phenyl}-1-(2-isopropylphenyl)-5-oxopyrrolidine-3-carboxamide]"
27,25 nM,"Cc1cc(C)nc(Nc2ccc(NC(=O)C3CC(=O)N(c4ccccc4C(C)C)C3)cc2)n1 (racemic) [rac. N-[4-(4,6-Dimethylpyrimidin-2-ylamino)phenyl]-1-(2-isopropylphenyl)-5-oxopyrrolidine-3-carboxamide]"
28,10 nM,CCn1c2ccccc2c2cc(NC(=O)C3CC(=O)N(CCc4cccs4)C3)ccc21 (racemic) [rac. N-(9-Ethyl-9H-carbazol-3-yl)-5-oxo-1-(2-thiophen-2-ylethyl)pyrrolidine-3-carboxamide]
29,47 nM,CC(C)c1ccccc1N1CC(C(=O)Nc2ccc(N(CC3CC3)c3ccccc3)cc2)CC1=O (racemic) [rac. N-[4-(Cyclopropylmethylphenylamino)phenyl]-1-(2-isopropylphenyl)-5-oxopyrrolidine-3-carboxamide]
30,32 nM,CCn1c2ccccc2c2cc(NC(=O)C3CC(=O)N(Cc4ccccc4)C3)ccc21 (racemic) [rac. N-(9-Ethyl-9H-carbazol-3-yl)-1-benzyl-5-oxopyrrolidine-3-carboxamide]
